Results published in PMC7503308, “A Novel Urease Inhibitor of Ruminal Microbiota Screened through Molecular Docking” (International Journal of Molecular Sciences, 2020).

System: ruminal microbiota
Experiment: Chemical degradation rate of compound in ruminal microbial fermentation (UPLC-HRMS)
Conditions: 100 μM
Procedure: The generation fermentation experiments were performed in anaerobic tubes containing 5 mL of an anaerobic medium, and in total, six generations of fermentation were performed. Altogether 54 tubes were prepared with nine tubes for each generation of fermentation. […] For the AHA treated group, the AHA working solution was prepared by diluting 3.76 mg AHA with 10 mL of methanol (5000 μM AHA). […] For the control group, the working solution contained only the solvent (methanol). All the working solutions were filtered by 0.22 μm of a membrane filter (Millipore Express PES Membrane, MILLEX GP). For each group, 100 µL of the working solution was added to each tube to mix with the anaerobic medium. […] Before the inoculation of each tube in each generation with fresh rumen fluid, 100 µL of the anaerobic urea solution was extracted from the anaerobic bottle using a syringe and filtered through 0.22 μm membrane filters, and then injected to the anaerobic tube to make the urea concentration at 16.65 mM in the tube. […] The NH4-N and Urea-N concentration was measured by the Berthelot alkaline phenol-hypochlorite method and the diacetyl monoxime method kit (Nanjing Jiancheng Co., Nanjing, China) following the manufacturer’s protocol. […]

COc1ccc(-c2ccc(CCC(=O)O)n2NC(N)=O)cc1 [6238-0047, 3-[1-[(aminocarbonyl)amino]-5-(4-methoxyphenyl)-1H-pyrrol-2-yl] propanoic acid]
24 h degradation rate (first-generation ruminal microbial culture): 3.32% | 24 h degradation rate (sixth generation ruminal microbial culture): 16.00%
